In ChEMBL document CHEMBL1143307, “Small-molecule perturbation of competing interactions between c-Myc and Max” (Bioorg Med Chem Lett, 2009):

Legend:
[1] = Decrease in c-Myc-p21MAX heterodimer binding to E-box DNA at 50 uM by EMSA method
[2] = Binding affinity to fluorescently tagged c-Myc-p21MAX heterodimer assessed as competitive constant by using fluorescence polarization titration

fold change (FC) [1]: 2
Activity [2]: 12
Structure (SMILES): CCc1ccc(/C=C2\SC(=S)NC2=O)cc1
